Data from patent US20240083857A1, “2-Methyl-Quinazolines” (Bayer Pharma Aktiengesellschaft, priority 2017, published 2024).
Like-named read-outs stand apart in the source and are kept apart here.

Experiments:
[1] = biological target: K-Ras^G12C : hSOS1 interaction (Homo sapiens, UniProt Q07889); test: Biochemical assay 1: K-Ras^G12C interaction assay with hSOS1 (HTRF); assay type: binding; conditions: for IC50: E-notation values, unit inferred, read-out: Assay 1 (KRAS-SOS interaction) IC50; for inhibition at 20 µM: read-out: Assay 1 (KRAS-SOS Interaction) activity expressed as % inhibition at 20 μM
[2] = biological target: Epidermal Growth Factor Receptor (EGFR) (Homo sapiens (Human), UniProt P00533); test: EGFR kinase assay (TR-FRET); assay type: biochemical
From the text: EGFR inhibitory activity of compounds of the present invention was quantified employing the TR-FRET based EGFR assay as described in the following paragraphs.
Epidermal Growth Factor Receptor (EGFR) affinity purified from human carcinoma A431 cells (Sigma-Aldrich, #E3641) was used as kinase. As substrate for the kinase reaction the biotinylated peptide biotin-Ahx-[…] (SEQ ID NO 5) (C-terminus in amid form) was used which can be purchased e.g. form the company Biosyntan GmbH (Berlin-Buch, Germany).
For the assay 50 nL of a 100 fold concentrated solution of the test compound in DMSO was pipetted into a black low volume 384 well microtiter plate (Greiner Bio-One, Frickenhausen, Germany), 2 μL of a solution of EGFR in aqueous assay buffer [50 mM Hepes/HCl pH 7.0, 1 mM MgCl2, 5 mM MnCl2, 0.5 mM activated sodium ortho-vanadate, 0.005% (v/v) Tween-20]were added and the mixture was incubated for 15 min at 22° C. to allow pre-binding of the test compounds to the enzyme before the start of the kinase reaction. […] The concentration of EGFR was adjusted depending of the activity of the enzyme lot and was chosen appropriate to have the assay in the linear range, typical concentration were about 3 U/ml. The reaction was stopped by the addition of 5 μl of a solution of HTRF detection reagents (0.1 μM streptavidine-XL665 [Cis Biointernational] and 1 nM PT66-Tb-Cryptate, an terbium-cryptate labelled anti-phospho-tyrosine antibody from Cis Biointernational [instead of the PT66-Tb-cryptate PT66-Eu-Chelate from Perkin Elmer can also be used]) in an aqueous EDTA-solution (80 mM EDTA, 0.2% (w/v) bovine serum albumin in 50 mM HEPES pH 7.5).
The resulting mixture was incubated 1 h at 22° C. to allow the binding of the biotinylated phosphorylated peptide to the streptavidine-XL665 and the PT66-Eu-Chelate. Subsequently the amount of phosphorylated substrate was evaluated by measurement of the resonance energy transfer from the PT66-Tb-Cryptate to the streptavidine-XL665. Therefore, the fluorescence emissions at 620 nm and 665 nm after excitation at 337 nm were measured in a HTRF reader, e.g. a Pherastar (BMG Labtechnologies, Offenburg, Germany) or a Viewlux (Perkin-Elmer). The ratio of the emissions at 665 nm and at […] was taken as the measure for the amount of phosphorylated substrate.

[3] = E-notation values, unit inferred, read-out: EGFR-assay IC50
[4] = values given in μM, read-out: EGFR kinase inhibition IC50
[5] = in μM, read-out: EGFR-assay IC50

Epidermal Growth Factor Receptor (EGFR), sequence (P00533 25-1210): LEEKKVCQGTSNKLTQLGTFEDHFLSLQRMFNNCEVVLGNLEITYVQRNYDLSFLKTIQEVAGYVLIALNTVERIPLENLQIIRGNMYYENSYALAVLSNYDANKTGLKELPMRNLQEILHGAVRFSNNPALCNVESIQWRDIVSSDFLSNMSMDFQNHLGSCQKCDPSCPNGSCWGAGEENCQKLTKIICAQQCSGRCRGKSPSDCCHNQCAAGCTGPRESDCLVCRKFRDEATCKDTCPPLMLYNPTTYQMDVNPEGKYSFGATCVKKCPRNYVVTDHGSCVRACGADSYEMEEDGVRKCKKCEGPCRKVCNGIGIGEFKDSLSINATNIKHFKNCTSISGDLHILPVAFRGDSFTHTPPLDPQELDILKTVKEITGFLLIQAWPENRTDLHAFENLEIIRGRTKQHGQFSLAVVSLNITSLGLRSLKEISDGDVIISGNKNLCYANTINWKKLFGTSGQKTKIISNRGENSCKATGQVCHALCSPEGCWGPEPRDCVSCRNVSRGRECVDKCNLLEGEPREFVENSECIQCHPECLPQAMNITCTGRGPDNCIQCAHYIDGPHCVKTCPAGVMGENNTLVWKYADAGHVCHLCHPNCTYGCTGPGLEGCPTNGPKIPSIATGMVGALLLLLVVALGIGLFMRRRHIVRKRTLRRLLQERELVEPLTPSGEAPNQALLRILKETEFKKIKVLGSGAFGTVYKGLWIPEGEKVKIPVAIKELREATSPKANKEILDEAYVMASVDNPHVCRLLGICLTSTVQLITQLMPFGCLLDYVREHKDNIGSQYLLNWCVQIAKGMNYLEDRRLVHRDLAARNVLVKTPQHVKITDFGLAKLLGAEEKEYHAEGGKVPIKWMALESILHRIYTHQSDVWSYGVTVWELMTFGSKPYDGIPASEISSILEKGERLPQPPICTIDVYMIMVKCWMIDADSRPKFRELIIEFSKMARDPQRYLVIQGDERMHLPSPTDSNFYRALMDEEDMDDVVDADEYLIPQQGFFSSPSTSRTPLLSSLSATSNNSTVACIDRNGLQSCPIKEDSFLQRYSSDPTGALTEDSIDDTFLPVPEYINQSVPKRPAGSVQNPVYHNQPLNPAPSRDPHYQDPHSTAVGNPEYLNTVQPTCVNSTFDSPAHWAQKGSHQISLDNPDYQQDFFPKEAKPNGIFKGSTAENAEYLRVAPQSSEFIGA

SMILES | IC50 [1] [µM] | IC50 [2, 3] [µM] | inhibition at 20 µM [1] [%] | IC50 [2, 4] [µM] | IC50 [2, 5] [µM]
COc1cc2nc(C)nc(NC(C)c3ccc(-c4ccccc4CN(C)C)s3)c2cc1OC (single isomer, unassigned) [Example 390, N-[1-(5-{2-[(dimethylamino)methyl]phenyl}thiophen-2-yl)ethyl]-6,7-dimethoxy-2-methylquinazolin-4-amine] | 5 | > 20 |  |  | 
COc1cc2nc(C)nc(NC(C)c3ccc(-c4ccccc4CN(C)C)s3)c2cc1OC (single isomer, unassigned) [Example 391, N-[1-(5-{2-[(dimethylamino)methyl]phenyl}thiophen-2-yl)ethyl]-6,7-dimethoxy-2-methylquinazolin-4-amine] | 0.0155 | > 20 |  |  | 
COc1cc2nc(C)nc(NC(C)c3ccc(=O)[nH]c3)c2cc1OC (single isomer, unassigned; enantiomer 1) [Example 227, 5-{1-[(6,7-dimethoxy-2-methylquinazolin-4-yl)amino]ethyl}pyridin-2(1H)-one, Enantiomer 1] |  |  | 48 | > 20 | 
COc1cc2nc(C)nc(NC(C)c3c(C)ccc4[nH]ncc34)c2cc1OC (stereo not shown) [Example 7, 6,7-dimethoxy-2-methyl-N-[1-(5-methyl-1H-indazol-4-yl)ethyl]quinazolin-4-amine] |  |  | 44 | > 20 | 
COc1cc2nc(C)nc(NC(C)c3ccc(-n4ccc(CCO)n4)o3)c2cc1OC (stereo not shown) [Example 226, 2-[1-(5-{1-[(6,7-dimethoxy-2-methylquinazolin-4-yl)amino]ethyl}furan-2-yl)-1H-pyrazol-3-yl]ethanol] |  |  | 43 | > 20 | 
COc1cc2nc(C)nc(NC(C)c3ccc(C4=CCCC4)s3)c2cc1OC (stereo not shown) [Example 231, N-{1-[5-(cyclopent-1-en-1-yl)thiophen-2-yl]ethyl}-6,7-dimethoxy-2-methylquinazolin-4-amine] |  |  | 56 | > 20 | 
COc1cc2nc(C)nc(NC(C)c3ccc(-c4ccc(CNC(=O)OC(C)(C)C)o4)s3)c2cc1OC (stereo not shown) [Example 236, tert-butyl {[5-(5-{1-[(6,7-dimethoxy-2-methylquinazolin-4-yl)amino]ethyl}thiophen-2-yl)furan-2-yl]methyl}carbamate] |  |  | 37 | > 20 | 
COC(=O)c1cc(-c2ccc(C(C)Nc3nc(C)nc4cc(OC)c(OC)cc34)s2)nn1C (stereo not shown) [Example 237, methyl 3-(5-{1-[(6,7-dimethoxy-2-methylquinazolin-4-yl)amino]ethyl}thiophen-2-yl)-1-methyl-1H-pyrazole-5-carboxylate] |  |  | 31 | > 20 | 
COc1cc2nc(C)nc(NC(C)c3ccc(-c4ccc(F)cc4CNC(=O)c4cc5ccccc5[nH]4)s3)c2cc1OC (stereo not shown) [Example 296, N-[2-(5-{1-[(6,7-dimethoxy-2-methylquinazolin-4-yl)amino]ethyl}thiophen-2-yl)-5-fluorobenzyl]-1H-indole-2-carboxamide] |  |  | 34 | > 20 | 
COc1cc2nc(C)nc(NC(C)c3ccc(-c4ccccc4CN4CCN(C(=O)OC(C)(C)C)CC4)s3)c2cc1OC (stereo not shown) [Example 306, tert-butyl 4-[2-(5-{1-[(6,7-dimethoxy-2-methylquinazolin-4-yl)amino]ethyl}thiophen-2-yl)benzyl]piperazine-1-carboxylate] |  |  | 45 | > 20 | 
COc1cc2nc(C)nc(NC(C)c3ccc(-c4ccccc4CNc4ccccc4)s3)c2cc1OC (stereo not shown) [Example 362, 6,7-dimethoxy-2-methyl-N-[1-(5-{2-[(phenylamino)methyl]phenyl}thiophen-2-yl)ethyl]quinazolin-4-amine] |  |  | 26 | > 20 | 
COCCNCc1ccccc1-c1ccc(C(C)Nc2nc(C)nc3cc(OC)c(OC)cc23)s1 (stereo not shown) [Example 369, 6,7-dimethoxy-N-{1-[5-(2-{[(2-methoxyethyl)amino]methyl}phenyl)thiophen-2-yl]ethyl}-2-methylquinazolin-4-amine] | 0.0995 |  |  |  | > 20
COc1cc2nc(C)nc(NC(C)c3ccc(-c4ccccc4CNC4CC4)s3)c2cc1OC (stereo not shown) [Example 370, N-[1-(5-{2-[(cyclopropylamino)methyl]phenyl}thiophen-2-yl)ethyl]-6,7-dimethoxy-2-methylquinazolin-4-amine] | 0.27 |  |  |  | > 20
COC(=O)c1ccc2nc(C)nc(N[C@H](C)c3cccc(Cl)c3)c2c1 [Example 371, methyl 4-{[(1R)-1-(3-chlorophenyl)ethyl]amino}-2-methylquinazoline-6-carboxylate] | 1.89 |  |  |  | > 20
Cc1nc(N[C@H](C)c2cccc(Cl)c2)c2cc(CO)ccc2n1 [Example 373, (4-{[(1R)-1-(3-chlorophenyl)ethyl]amino}-2-methylquinazolin-6-yl)methanol] | 1.52 |  |  |  | > 20
COc1cc2nc(C)nc(NC(C)c3ccc(-c4ccccc4C(O)c4ccccc4)s3)c2cc1OC (stereo not shown) [Example 374, [2-(5-{1-[(6,7-dimethoxy-2-methylquinazolin-4-yl)amino]ethyl}thiophen-2-yl)-phenyl](phenyl)methanol] | 1.6 |  |  |  | > 20
COc1cc2nc(C)nc(NC(C)c3ccc(-c4ccccc4C(O)Cc4ccccc4)s3)c2cc1OC (stereo not shown) [Example 376, 1-[2-(5-{1-[(6,7-dimethoxy-2-methylquinazolin-4-yl)amino]ethyl}thiophen-2-yl)phenyl]-2-phenylethanol] | 5.46 |  |  |  | > 20
CCCCC(O)c1ccccc1-c1ccc(C(C)Nc2nc(C)nc3cc(OC)c(OC)cc23)s1 (stereo not shown) [Example 377, 1-[2-(5-{1-[(6,7-dimethoxy-2-methylquinazolin-4-yl)amino]ethyl}thiophen-2-yl)phenyl]pentan-1-ol] | 5.14 |  |  |  | > 20
C#CC(O)c1ccccc1-c1ccc(C(C)Nc2nc(C)nc3cc(OC)c(OC)cc23)s1 (stereo not shown) [Example 378, 1-[2-(5-{1-[(6,7-dimethoxy-2-methylquinazolin-4-yl)amino]ethyl}thiophen-2-yl)phenyl]prop-2-yn-1-ol] | 0.43 |  |  |  | > 20
COc1cc2nc(C)nc(NC(C)c3ccc(-c4ccccc4C(O)C(C)C)s3)c2cc1OC (stereo not shown) [Example 379, 1-[2-(5-{1-[(6,7-dimethoxy-2-methylquinazolin-4-yl)amino]ethyl}thiophen-2-yl)phenyl]-2-methylpropan-1-ol] | 0.568 |  |  |  | > 20
COc1cc2nc(C)nc(NC(C)c3ccc(-c4ccccc4C(O)C(F)(F)F)s3)c2cc1OC (stereo not shown) [Example 380, 1-[2-(5-{1-[(6,7-dimethoxy-2-methylquinazolin-4-yl)amino]ethyl}thiophen-2-yl)phenyl]-2,2,2-trifluoroethanol] | 0.937 |  |  |  | > 20
COc1cc2nc(C)nc(NC(C)c3cc(C)c(-c4cnc5n4CCC5)s3)c2cc1OC (stereo not shown) [Example 381, N-{1-[5-(6,7-dihydro-5H-pyrrolo[1,2-a]imidazol-3-yl)-4-methylthiophen-2-yl]ethyl}-6,7-dimethoxy-2-methylquinazolin-4-amine] | 0.49 |  |  |  | > 20
COc1cc2nc(C)nc(NC(C)c3ccc(-c4ccc(F)cc4CNC(=O)CO)s3)c2cc1OC (stereo not shown) [Example 382, N-[2-(5-{1-[(6,7-dimethoxy-2-methylquinazolin-4-yl)amino]ethyl}thiophen-2-yl)-5-fluorobenzyl]-2-hydroxyacetamide] | 0.253 |  |  |  | > 20
COCC(=O)NCc1cc(F)ccc1-c1ccc(C(C)Nc2nc(C)nc3cc(OC)c(OC)cc23)s1 (stereo not shown) [Example 383, N-[2-(5-{1-[(6,7-dimethoxy-2-methylquinazolin-4-yl)amino]ethyl}thiophen-2-yl)-5-fluorobenzyl]-2-methoxyacetamide] | 0.984 |  |  |  | > 20
COc1cc2nc(C)nc(NC(C)c3ccc(-c4cc(Cl)ccc4CNC(=O)OC(C)(C)C)s3)c2cc1OC (stereo not shown) [Example 387, tert-butyl [4-chloro-2-(5-{1-[(6,7-dimethoxy-2-methylquinazolin-4-yl)amino]ethyl}-thiophen-2-yl)benzyl]carbamate] | 1.17 | > 20 |  |  | 
COc1cc2nc(C)nc(N[C@H](C)c3cccc(-c4ccnc(O)c4)c3)c2cc1OC [Example 388, 4-(3-{(1R)-1-[(6,7-dimethoxy-2-methylquinazolin-4-yl)amino]ethyl}phenyl)pyridin-2-ol] | 0.205 | > 20 |  |  | 
